The record followed here is patent US20180188270A1, “DIAGNOSTIC TEST FOR ALZHEIMER'S DISEASE BASED ON IDENTIFICATION OF A PROTEOLYTIC PATHWAY” (Health Research, Inc., priority 2015, published 2018).

“Also recorded” adds a separate entry of the source.

One data set has as its system plasma mSRC. The data set can be described thus: Plasma SRC concentration in mice by ELISA. In kind it is in vivo, mouse. Particulars: FXII−/− mice, CCl4 0.5 g/kg or hPEPD 4 mg/kg i.p., 24 h. The protocol: Animal studies. All animal studies were performed in accordance with protocols approved by the Institutional Animal Care and Use Committee at Roswell Park Cancer Institute. Male mice at 7-8 weeks of age were used, including wild type (WT) mice (C57BL/6), and mice deficient in FXII (C57BL/6-FXII^−/−) or FVII (C57BL/6-FVII^tTA/tTA). WT C57BL/6 mice were purchased from Taconic. C57BL/6-FXII^−/− mice and C57BL/6-FVII^tTA/tTA mice were bred in our own facility and genotyped. The breeders were kindly provided by Dr. Francis J. Castellino at University of Notre Dame. […] CCl4 was dissolved in corn oil, whereas all other substances were dissolved in PBS. The vehicle or the test substance was given to mice in 0.1 ml volume per 20 g body weight. Blood was collected from the mice at specific times by cardiac puncture at the time of sacrifice by carbon dioxide, and heart, liver and kidney were also collected from some of the mice. […]
Measurement of plasma levels of PEPD, SRC, Aβ1-42 and FI. […] Upon adequate color development, 100 μl of stop solution (Cell Signaling, 7002) was added to each well, and absorbance at 450 nm was promptly recorded by a microtiter plate reader. Plasma FI concentration was determined using an assay kit (400-374-130050) from GenWay Biotech, following the manufacturer's instruction.

In a further data set the test system is plasma Aβ1-42. The data set is described as follows: Plasma Aβ1-42 concentration in mice by ELISA. In kind it is in vivo, mouse. The conditions noted are these: FXII−/− mice, CCl4 0.5 g/kg or hPEPD 4 mg/kg i.p., 24 h. A general note: In an ELISA, binding on a coated surface is turned into a signal by an enzyme label.
The test system of the next data set is ERBB1 and ERBB2. The data set is described as follows: Tissue levels and phosphorylation of ERBB1 and ERBB2 by IB. It counts as in vivo, mouse. Particulars: CCl4 0.5 g/kg or hPEPD 4 mg/kg i.p., 24 h. The protocol:
(§1) Animal studies. All animal studies were performed in accordance with protocols approved by the Institutional Animal Care and Use Committee at Roswell Park Cancer Institute. Male mice at 7-8 weeks of age were used, including wild type (WT) mice (C57BL/6), and mice deficient in FXII (C57BL/6-FXII^−/−) or FVII (C57BL/6-FVII^tTA/tTA). WT C57BL/6 mice were purchased from Taconic. C57BL/6-FXII^−/− mice and C57BL/6-FVII^tTA/tTA mice were bred in our own facility and genotyped. The breeders were kindly provided by Dr. Francis J. Castellino at University of Notre Dame. […] CCl4 was dissolved in corn oil, whereas all other substances were dissolved in PBS. The vehicle or the test substance was given to mice in 0.1 ml volume per 20 g body weight. Blood was collected from the mice at specific times by cardiac puncture at the time of sacrifice by carbon dioxide, and heart, liver and kidney were also collected from some of the mice. Blood was collected into K3 EDTA-containing tubes (Multivette 600 from Sarstedt), unless specified otherwise. All blood samples were promptly centrifuged to obtain plasma samples.
IB. […] Protein concentrations in all samples were measured by the BCA assay kit. […] The proteins were transferred to polyvinylidene fluoride membrane, probed with specific antibodies and detected using the ECL Plus Kit (Amersham) or the SuperSignal West Pico Kit (Thermo Scientific).

Another data set has as its system liver. The data set is described as follows: Liver damage after CCl4: plasma AST and ALT, liver weight. In kind it is in vivo, mouse. Particulars: WT mice and FXII−/− mice, CCl4 0.5 g/kg i.p., 24 h. The protocol: as §1
Measurement of Plasma Levels of Aspartate Transaminase (AST) and Alanine Transaminase (ALT). Plasma AST activity was measured using the Infinity™ AST (GOT) Reagent kit (Thermo, TR70121). Plasma ALT activity was measured using the Infinity™ ALT (GPT) Reagent kit (Thermo, TR71121). […]

The test system of another data set is plasma PEPD. The data set can be described thus: Plasma PEPD concentration in mice by ELISA. In kind it is in vivo, mouse. Particulars: CCl4 0.5 g/kg i.p., 24 h. The protocol: as §1
Measurement of plasma levels of PEPD, SRC, Aβ1-42 and FI. […] The plates were washed three times with phosphate buffered saline tween-20 (PBST) and the coated wells were blocked by incubation with 200 μl/well of 1% BSA in PBS for at least 2 h at RT. After another round of wash with PBST, the plates were incubated with appropriately diluted Aβ1-42 standard, SRC standard or plasma samples (100 μl/well) for 2 h at RT. The plates were then washed with PBST and incubated with an anti-Aβ1-42 rabbit polyclonal antibody (sc-9129) or anti-SRC rabbit monoclonal antibody (2123) at 100 μl/well for 2 h at RT. The plates were washed again with PBST, and each well was incubated with a goat anti-rabbit IgG-HRP conjugate (100 μl) for 1 h at RT. After yet another round of wash with PBST, each well was incubated with 100 μl of HRP substrate 3,3′,5,5′-tetramethylbenzedine (Cell Signaling, 7004). Upon adequate color development, 100 μl of stop solution (Cell Signaling, 7002) was added to each well, and absorbance at 450 nm was promptly recorded by a microtiter plate reader. Plasma FI concentration was determined using an assay kit (400-374-130050) from GenWay Biotech, following the manufacturer's instruction.

Another data set concerns plasma hAβ1-42. The data set is described as follows: Effects of oral anticoagulants on plasma level of hAβ1-42 in mice. Particulars: for elevation of plasma levels of hAβ1-42: hAβ1-42 40 μg/kg, 6 h; for top dose tested is the maximal soluble dose: mouse, in vivo. In kind it is in vivo. As for the experimental part:
Blood was collected into K3 EDTA-containing tubes (Multivette 600 from Sarstedt). […] Rivaroxaban, dabigatran (dabigatran elexilate) and warfarin (warfarin sodium tablets) were from Bristol-Myers-Squibb, Combi-Blocks, and Advanced Chemblocks, respectively. Rivaroxaban was dissolved in 10% ethanol, 40% Solutol HS15 (Sigma) and 50% water and was administered to mice in 0.2 ml volume per 20 g body weight. Dabigatran was dissolved in 2% dimethyl sulfoxide in soy oil (Sigma) and was also administered to mice in 0.2 ml volume per 20 g body weight. Warfarin was dissolved in water and was administered to mice in 0.1 ml volume per 20 g body weight.

In data set [1] the test system is plasma coagulation factors FXII, PK, HMWK, FXI, FIX, FX, FII, FI and FVII. The data set can be described thus: Changes in plasma coagulation factors in mice by IB (FI by ELISA). It counts as in vivo, mouse. Particulars: WT mice, 6 h after i.p. treatment.
Description: Animal studies. […] Male mice at 7-8 weeks of age were used, including wild type (WT) mice (C57BL/6), and mice deficient in FXII (C57BL/6-FXII^−/−) or FVII (C57BL/6-FVII^tTA/tTA). WT C57BL/6 mice were purchased from Taconic. C57BL/6-FXII^−/− mice and C57BL/6-FVII^tTA/tTA mice were bred in our own facility and genotyped. […] CCl4 was dissolved in corn oil, whereas all other substances were dissolved in PBS. The vehicle or the test substance was given to mice in 0.1 ml volume per 20 g body weight. Blood was collected from the mice at specific times by cardiac puncture at the time of sacrifice by carbon dioxide, and heart, liver and kidney were also collected from some of the mice. Blood was collected into K3 EDTA-containing tubes (Multivette 600 from Sarstedt), unless specified otherwise. All blood samples were promptly centrifuged to obtain plasma samples.
The plates were washed three times with phosphate buffered saline tween-20 (PBST) and the coated wells were blocked by incubation with 200 μl/well of 1% BSA in PBS for at least 2 h at RT. […] The plates were washed again with PBST, and each well was incubated with a goat anti-rabbit IgG-HRP conjugate (100 μl) for 1 h at RT. After yet another round of wash with PBST, each well was incubated with 100 μl of HRP substrate 3,3′,5,5′-tetramethylbenzedine (Cell Signaling, 7004). Upon adequate color development, 100 μl of stop solution (Cell Signaling, 7002) was added to each well, and absorbance at 450 nm was promptly recorded by a microtiter plate reader. Plasma FI concentration was determined using an assay kit (400-374-130050) from GenWay Biotech, following the manufacturer's instruction.
IB. Tissue samples were mixed with RIPA buffer (25 mM Tris-HCl, pH 7.6, 150 mM NaCl, 1% Nonidet P-40, 1% sodium deoxycholate, 0.1% SDS), supplemented with 2 mM phenylmethanesulfonyl fluoride, a proteinase inhibitor mix (Roche Applied Science) and phosphatase inhibitor Cocktail 2 (Sigma-Aldrich). Tissue samples were stroked in a Dounce homogenizer, and the homogenates were cleared by centrifugation at 12,000×g for 15 min at 4° C. Protein concentrations in all samples were measured by the BCA assay kit. Plasma samples were used without further processing (20 μl per sample). Each sample was mixed with 4× loading dye, heated for 5 min at 95° C. and then resolved by SDS-PAGE (8-12.5%). […] The proteins were transferred to polyvinylidene fluoride membrane, probed with specific antibodies and detected using the ECL Plus Kit (Amersham) or the SuperSignal West Pico Kit (Thermo Scientific).
Data set [2] deals with FXII. The data set can be described thus: Binding to coagulation factor FXII (IP and IB). Details: species or system human. Particulars: 40 nM (hAβ1-42 200 nM) with FXII in PBS, 2 h.
Description: Binding reactions were carried out in PBS in a total volume of 100 μl for 2 h at 37° C. To assess binding of hPEPD to HMWK, PK, FXI, FXII or a FXII mutant, hPEPD at 40 nM was incubated with a potential binding partner at 0.5 μM. All FXII mutants are His tagged, while FXII is either 6XHis-tagged (generated in our own laboratory) or not His-tagged (purchased commercially), depending on the experiment. To compare hPEPD and its mutants for binding to FXII, hPEPD or a mutant (40 nM) was incubated with FXII at 0.5 μM. Likewise, to assess binding of mSRC to FXII and its mutants, mSRC (40 nM) was incubated with FXII or a mutant at 0.5 μM. At the end of the incubation, 300 μl PBS containing a specific primary antibody was added to the incubation solution, which was further incubated at 4° C. overnight, followed by IP by protein G-agarose, and the precipitates were analyzed by IB. […] The precipitates were re-dissolved in 30 μl of 2% SDS, which were analyzed along with the supernatants by IB.
The subject of data set [3] is FXII. The data set is described as follows: FXII activation, chromogenic assay. Particulars: FXII 0.97 nM, ZnCl2-containing PBS, RT. In kind it is biochemical, human. As for the experimental part:
Measurement of FXII activation. […] FXII activation was followed for 3 h at RT by monitoring the conversion of the chromogenic substrate at 405 nm by a microtiter plate reader.
Each value is mean±SD (n=3).

Description for plasma Aβ1-42: Animal studies. All animal studies were performed in accordance with protocols approved by the Institutional Animal Care and Use Committee at Roswell Park Cancer Institute. Male mice at 7-8 weeks of age were used, including wild type (WT) mice (C57BL/6), and mice deficient in FXII (C57BL/6-FXII^−/−) or FVII (C57BL/6-FVII^tTA/tTA). WT C57BL/6 mice were purchased from Taconic. C57BL/6-FXII^−/− mice and C57BL/6-FVII^tTA/tTA mice were bred in our own facility and genotyped. […] CCl4 was dissolved in corn oil, whereas all other substances were dissolved in PBS. The vehicle or the test substance was given to mice in 0.1 ml volume per 20 g body weight. Blood was collected from the mice at specific times by cardiac puncture at the time of sacrifice by carbon dioxide, and heart, liver and kidney were also collected from some of the mice. Blood was collected into K3 EDTA-containing tubes (Multivette 600 from Sarstedt), unless specified otherwise. All blood samples were promptly centrifuged to obtain plasma samples.

`ClC(Cl)(Cl)Cl` [CCl4, Carbon tetrachloride]: the “average plasma level of mSRC, increase” value with plasma mSRC is given as 6.7%. In addition, in the data set with plasma Aβ1-42, the “average plasma level of mAβ1-42, increase” value is listed as 24.9%. Besides, the “changes in ERBB1/ERBB2 tyrosine phosphorylation and receptor depletion in heart, kidney and liver, WT mice compared to FXII−/− mice” value in the data set on ERBB1 and ERBB2 was “reduced changes in receptor tyrosine phosphorylation”. Besides, in the data set with liver, the “liver damage (plasma AST, ALT, liver weight)” value is “caused significant but similar liver damage”. Also, the “plasma level of mPEPD, increase” value with plasma PEPD (FXII−/− mice) came out at 16.7 fold; in the data set on plasma PEPD (WT mice), 3.7 fold.

Regarding `[H]/N=C(/N)c1ccc(NCc2nc3cc(C(=O)N(CCC(=O)O)c4ccccn4)ccc3n2C)cc1` [dabigatran], the “elevation of plasma levels of hAβ1-42” value is recorded as 14.1 fold in the data set with plasma hAβ1-42 (dabigatran 22.5 mg/kg oral once daily 5 days) and 21.3 fold in the data set on plasma hAβ1-42 (dabigatran 45 mg/kg oral once daily 5 days). Also, the “top dose tested is the maximal soluble dose” value in the data set on plasma hAβ1-42 was “maximal soluble doses”.

With `O=C(NC[C@H]1CN(c2ccc(N3CCOCC3=O)cc2)C(=O)O1)c1ccc(Cl)s1` [rivaroxaban], the “relative effectiveness in elevating plasma hAβ1-42 level” value in the data set with plasma hAβ1-42 (comparison among warfarin, rivaroxaban, dabigatran and with EP) is recorded as “the most effective; also recorded: not as effective as EP”. The “top dose tested is the maximal soluble dose” value with plasma hAβ1-42 is reported as “maximal soluble doses”. The “elevation of plasma levels of hAβ1-42” value worked out at 47.2 fold with plasma hAβ1-42 (rivaroxaban 10 mg/kg oral once daily 5 days) and 55.5 fold in the data set with plasma hAβ1-42 (rivaroxaban 20 mg/kg oral once daily 5 days).

Take `CC(=O)CC(c1ccccc1)c1c(O)c2ccccc2oc1=O` (centres unmarked) [warfarin]: the “elevation of plasma levels of hAβ1-42” value in the data set with plasma hAβ1-42 (warfarin 1 mg/kg oral once daily 5 days) came out at 33.2 fold; in the data set with plasma hAβ1-42 (warfarin 3 mg/kg oral once daily 5 days) it was 42.4 fold.

B1: mPEPD: mouse PEPD purified from mouse kidney by immunoaffinity purification, without any tag (protein, UniProt Q11136 2-493, looked up)
Xaa-Pro dipeptidase: ASTVRPSFSLGNETLKVPLALFALNRQRLCERLRKNGAVQAASAVVLQGGEEMQRYCTDTSIIFRQESFFHWAFGVVESGCYGVIDVDTGKSTLFVPRLPDSYATWMGKIHSKEYFKEKYAVDDVQYTDEIASVLTSRNPSVLLTLRGVNTDSGSVCREASFEGISKFNVNNTILHPEIVECRVFKTDMELEVLRYTNRISSEAHREVMKAVKVGMKEYEMESLFQHYCYSRGGMRHTSYTCICCSGENAAVLHYGHAGAPNDRTIKDGDICLFDMGGEYYCFASDITCSFPANGKFTEDQKAIYEAVLRSCRTVMSTMKPGVWWPDMHRLADRIHLEELARIGLLSGSVDAMLQVHLGAVFMPHGLGHFLGLDVHDVGGYPEGVERIDEPGLRSLRTARHLEPGMVLTVEPGIYFIDHLLDQALADPAQACFFNQEVLQRFRNFGGVRIEEDVVVTDSGMELLTCVPRTVEEIEACMAGCDKASVPFSGQK
Consider B1, for which, in [1], the “activation/cleavage of plasma coagulation factors” value is on record as “elicited the same response as did hPEPD”.

B2: 1M-265Rdel-hPEPD: hPEPD deletion mutant, cannot form homodimers (protein, UniProt P12955 266-493, looked up, fragment)
chain: TIQNGDMCLFDMGGEYYCFASDITCSFPANGKFTADQKAVYEAVLRSSRAVMGAMKPGVWWPDMHRLADRIHLEELAHMGILSGSVDAMVQAHLGAVFMPHGLGHFLGIDVHDVGGYPEGVERIDEPGLRSLRTARHLQPGMVLTVEPGIYFIDHLLDEALADPARASFLNREVLQRFRGFGGVRIEEDVVVTDSGIELLTCVPRTVEEIEACMAGCDKAFTPFSGPK
As to B2, the “binding to FXII” value with FXII [2] is “almost indistinguishable from hPEPD in FXII binding”.

B3: 266T-493Kdel-hPEPD: hPEPD deletion mutant, cannot form homodimers (protein, UniProt P12955 1-265, looked up, fragment)
chain: MAAATGPSFWLGNETLKVPLALFALNRQRLCERLRKNPAVQAGSIVVLQGGEETQRYCTDTGVLFRQESFFHWAFGVTEPGCYGVIDVDTGKSTLFVPRLPASHATWMGKIHSKEHFKEKYAVDDVQYVDEIASVLTSQKPSVLLTLRGVNTDSGSVCREASFDGISKFEVNNTILHPEIVECRVFKTDMELEVLRYTNKISSEAHREVMKAVKVGMKEYELESLFEHYCYSRGGMRHSSYTCICGSGENSAVLHYGHAGAPNDR
Regarding B3, the “binding to FXII” value with FXII [2] is on record as “neither 185V-493Kdel-hPEPD nor 266T-493Kdel-hPEPD could bind to FXII”.

B4: 1M-228Hdel-hPEPD: hPEPD mutant named only once; probably 1M-265Rdel-hPEPD (protein, UniProt P12955 229-493, looked up, fragment)
chain: YCYSRGGMRHSSYTCICGSGENSAVLHYGHAGAPNDRTIQNGDMCLFDMGGEYYCFASDITCSFPANGKFTADQKAVYEAVLRSSRAVMGAMKPGVWWPDMHRLADRIHLEELAHMGILSGSVDAMVQAHLGAVFMPHGLGHFLGIDVHDVGGYPEGVERIDEPGLRSLRTARHLQPGMVLTVEPGIYFIDHLLDEALADPARASFLNREVLQRFRGFGGVRIEEDVVVTDSGIELLTCVPRTVEEIEACMAGCDKAFTPFSGPK
In the case of B4, the “FXII activation, activity relative to hPEPD” value in the data set with FXII [3] is reported as “about 50%”.

B5: 185V-493Kdel-hPEPD: hPEPD deletion mutant, cannot form homodimers (protein, UniProt P12955 1-184, looked up, fragment)
chain: MAAATGPSFWLGNETLKVPLALFALNRQRLCERLRKNPAVQAGSIVVLQGGEETQRYCTDTGVLFRQESFFHWAFGVTEPGCYGVIDVDTGKSTLFVPRLPASHATWMGKIHSKEHFKEKYAVDDVQYVDEIASVLTSQKPSVLLTLRGVNTDSGSVCREASFDGISKFEVNNTILHPEIVECR
With B5, the “binding to FXII” value in the data set on FXII [2] is on record as “neither 185V-493Kdel-hPEPD nor 266T-493Kdel-hPEPD could bind to FXII”.
